Reference: patent US20050222270A1, “Prolonged administration of NMDA antagonist drug and safener drug to create improved stable neural homeostasis” (priority 2004, published 2005)

How the values were obtained:
[1] = test system: patient with intractable post-herpetic trigeminal neuralgia; assay: Ketamine infusion with clonidine and MgSO4 in a patient with post-herpetic trigeminal neuralgia; type: in vivo, human
Source text: A person had suffered for about 1.5 years from intractable post-herpetic trigeminal neuralgia (commonly known as shingles).

[2] = test system: patients with CRPS-1 (RSD); assay: Sustained ketamine infusion (with clonidine/magnesium) in patients with CRPS-1 (RSD) chronic neuropathic pain
Source text: One of the coinventors herein (Correll, a physician) was involved in those tests, in Australia, using ketamine “mono-therapy” (i.e., without also administering a safener drug, such as clonidine).
In response, the anesthesiologist began to administer clonidine, a standard and conventional treatment for controlling high blood pressure. […] The anesthesiologist then began researching the scientific, medical, and patent literature on the subject, and soon discovered prior work done by the third inventor (Olney, a neurology researcher who specializes in animal models) on the subject of safener drugs that can reduce or prevent the toxic side effects of NMDA blocker drugs such as ketamine.
A person had suffered for roughly 9 years from intractable chronic pain, diagnosed as CRPS-1 and/or RSD, in their right leg and foot. This pain apparently was related to circulatory problems in their right leg. […] The contents of that article are incorporated herein by reference.
They were treated with […] of MgSO4 (infused in 5% dextrose in water, or D5W) and 0.1 mg clonidine (oral tablet) prior to ketamine. […] A second magnesium infusion was performed at 24 hr.

depressed patients = settings: single one-time dosage; cited from earlier work
[3] = test system: patients with compulsive eating disorders (mainly anorexic); settings: 2 to 9 infusions, 10-hour infusion period, 20 mg per hour; cited from earlier work

O=S(=O)([O-])[O-].[Mg+2] [MgSO4, magnesium sulfate]
effect of magnesium coadministered along with ketamine on pain ([1]; Example 3, 2 g MgSO4 prior to and 2 g later in ketamine infusion): synergistic pain-reducing effect

Clc1cccc(Cl)c1N=C1NCCN1 [clonidine]
effect of adding clonidine to ketamine infusion on pain ([2]; patient in ketamine mono-therapy test, clonidine given for rising blood pressure): substantial improvement in their pain reduction

CNC1(c2ccccc2Cl)CCCCC1=O (stereo not drawn) [ketamine]
time patient remained pain-free after ketamine treatment ([2]; Example 1, person, 9-year CRPS-1/RSD in right leg and foot): roughly 18 months
pain status at last contact ([2]; Example 2, about 12 months after treatment): still pain-free
time until CNS side effects (slurring of speech) resolved ([2]; Example 2, ketamine infusion increased to 20 mg/hr): ≤ 24 h
time of ketamine infusion until essentially complete relief from pain ([2]; Example 2, person, ketamine 10-20 mg/hr i.v. with clonidine 0.1 mg every 12 hours and MgSO4): 2 to 3 days
effect on depression (depressed patients): transient relief of depression
pain status at last contact ([1]; Example 3, about 12 months after treatment, 48 hours ketamine infusion, clonidine started during first day, 2 x 2 g MgSO4): still largely abated
patients with prolonged remission of compulsive thoughts about food, diet, and weight [3]: Nine of the 15
